Assay results reported in EP0531958A1, “6-Aminoquinolones, their synthesis and their use as antibacterial agents” (MEDIOLANUM FARMACEUTICI S.P.A., priority 1991, dated 1993).
In brackets after ≈: the same amount, converted by molar mass. Where two headings read alike, the source gives them in different places.

Experiments:
Type in all cases: cell-based
Gram + = assay: MIC test, average over the 5 gram-positive test germs; conditions: 24 h
Protocol: (§1) As to the antibacterial activity, there was determined the Least (Minimum) Inhibiting Concentration (MIC), by working according to the following operative conditions.
(§2) There were used suspensions of test germs (5 gram-positive and 15 gram-negative) having a known titre, kept freezed at -80°C and diluted, at the time of use, in peptonized water up to a concentration of 1-2.10⁷ cfu/ml.
(§3) A few mg of the products, according to the invention were weighed sufficient for preparing parent solutions in DMSO + NaOH (1N) containing 2560 µg/ml (64µg/ml/dish). From the thus prepared parent solutions there were prepared 12 serial dilutions (1:2) down to the concentration of 1.25 µg/ml.
(§4) 0.5 ml of the different dilutions of each product were distributed on dishes containing 19.5 ml of agarized medium (TSA), maintained in a fluid state at the temperature of 50°C. After slight stirring, the dishes were made to solidify and dry under hood (laminar flow).
(§5) The MIC tests (Least or "Minimum" Inhibiting Concentration) were performed by using a Steers multiwell inoculator having 36 wells, each containing 200 µl of bacterial suspension.
(§6) After inoculation, the dishes were placed into a thermostat and checked after 24 h of incubation at 35°C.
(§7) The MIC is defined as the lowermost product concentration (µg/ml) inhibiting the visible growth of the microorganisms.

Gram - = assay: MIC test, average over the 15 gram-negative test germs; conditions: 24 h
Protocol: as §1, §2, §3, §4, §5, §6, §7

[1] = tested on: Acinebacter calcoloaceticus OSMPV 1130; assay: MIC test, agar dilution with Steers multiwell inoculator; conditions: TSA dishes, 24 h at 35°C, read-out: Minimum Inhibiting Concentration
Protocol: as §1, §2, §3, §4, §5, §6, §7

[2] = tested on: Escherichia coli ATCC 8739; assay: as above; conditions: ATCC8739, TSA dishes, 24 h at 35°C, read-out: Minimum Inhibiting Concentration
Protocol: as §1, §2, §3, §4, §5, §6, §7

[3] = tested on: Staphylococcus epidermidis CPHL A2; assay: as above; conditions: CPHLA2, TSA dishes, 24 h at 35°C, read-out: Minimum Inhibiting Concentration
Protocol: as §1, §2, §3, §4, §5, §6, §7

[4] = tested on: Pseudomonas aeruginosa ATCC 9027; assay: as above; conditions: ATCC9027, TSA dishes, 24 h at 35°C, read-out: Minimum Inhibiting Concentration
Protocol: as §1, §2, §3, §4, §5, §6, §7

Escherichia coli ISF 432 = assay: as above; conditions: ISF432, TSA dishes, 24 h at 35°C, read-out: Minimum Inhibiting Concentration
Protocol: as §1, §2, §3, §4, §5, §6, §7

Escherichia coli 120 = assay: as above; conditions: TSA dishes, 24 h at 35°C, read-out: Minimum Inhibiting Concentration
Protocol: as §1, §2, §3, §4, §5, §6, §7

[5] = tested on: Klebsiella pneumoniae ATCC 10031; assay: as above; conditions: ATCC10031, TSA dishes, 24 h at 35°C, read-out: Minimum Inhibiting Concentration
Protocol: as §1, §2, §3, §4, §5, §6, §7

[6] = tested on: Enterobacter cloacae OMNF 1153; assay: as above; conditions: OMNF1153, TSA dishes, 24 h at 35°C, read-out: Minimum Inhibiting Concentration
Protocol: as §1, §2, §3, §4, §5, §6, §7

[7] = tested on: Staphylococcus aureus ATCC 6538; assay: as above; conditions: ATCC6538, TSA dishes, 24 h at 35°C, read-out: Minimum Inhibiting Concentration
Protocol: as §1, §2, §3, §4, §5, §6, §7

Escherichia coli CNUR 1 = assay: as above; conditions: CNUR1, TSA dishes, 24 h at 35°C, read-out: Minimum Inhibiting Concentration
Protocol: as §1, §2, §3, §4, §5, §6, §7

[8] = tested on: Pseudomonas aeruginosa CNUR 2; assay: as above; conditions: CNUR2, TSA dishes, 24 h at 35°C, read-out: Minimum Inhibiting Concentration
Protocol: as §1, §2, §3, §4, §5, §6, §7

Shighella enteritidis = assay: as above; conditions: TSA dishes, 24 h at 35°C, read-out: Minimum Inhibiting Concentration
Protocol: as §1, §2, §3, §4, §5, §6, §7

[9] = tested on: Pseudomonas aeruginosa CNUR 4; assay: as above; conditions: CNUR4, TSA dishes, 24 h at 35°C, read-out: Minimum Inhibiting Concentration
Protocol: as §1, §2, §3, §4, §5, §6, §7

[10] = tested on: Providencia stuardii CNUR 5; assay: as above; conditions: CNUR5, TSA dishes, 24 h at 35°C, read-out: Minimum Inhibiting Concentration
Protocol: as §1, §2, §3, §4, §5, §6, §7

Escherichia coli CNUR 8 = assay: as above; conditions: CNUR8, TSA dishes, 24 h at 35°C, read-out: Minimum Inhibiting Concentration
Protocol: as §1, §2, §3, §4, §5, §6, §7

[11] = tested on: Enterobacter cloacae OMNF 1174; assay: as above; conditions: OMNF1174, TSA dishes, 24 h at 35°C, read-out: Minimum Inhibiting Concentration
Protocol: as §1, §2, §3, §4, §5, §6, §7

[12] = tested on: Streptococcus facealis LEP Br.; assay: as above; conditions: TSA dishes, 24 h at 35°C, read-out: Minimum Inhibiting Concentration
Protocol: as §1, §2, §3, §4, §5, §6, §7

[13] = tested on: Staphylococcus aureus MPR 5; assay: as above; conditions: MPR5, TSA dishes, 24 h at 35°C, read-out: Minimum Inhibiting Concentration
Protocol: as §1, §2, §3, §4, §5, §6, §7

Proteus vulgaris CNUR 6 = assay: as above; conditions: CNUR6, TSA dishes, 24 h at 35°C, read-out: Minimum Inhibiting Concentration
Protocol: as §1, §2, §3, §4, §5, §6, §7

[14] = tested on: Staphylococcus epidermidis HCF Berset C.; assay: as above; conditions: TSA dishes, 24 h at 35°C, read-out: Minimum Inhibiting Concentration
Protocol: as §1, §2, §3, §4, §5, §6, §7

[15] = geometrical average of the MIC over the 5 Gram + strains, read-out: Geometrical Average
[16] = geometrical average of the MIC over the 15 Gram - strains, read-out: Geometrical Average
[17] = mean log of the MIC over the 15 Gram - strains, read-out: Log (converted)

## CN1CCN(c2c(N)c(N)c3c(=O)c(C(=O)O)cn(C4CC4)c3c2F)CC1 [Compound 28]
Gram +; [15]
  MIC: 3.03 µg/mL
Gram +; read-out: Log (converted)
  MIC: 3.03 µg/mL (≈ 8.08 µM)
Gram -; [16]
  MIC: 0.592 µg/mL (≈ 1.58 µM)
Gram -; [17]
  MIC: 0.592 µg/mL (≈ 1.58 µM)
[1]
  MIC: 2 µg/mL (≈ 5.33 µM)
[2]
  MIC: 0.03 µg/mL (≈ 0.0799 µM)
[3]
  MIC: 4 µg/mL (≈ 10.7 µM)
[4]
  MIC: 4 µg/mL (≈ 10.7 µM)
Escherichia coli ISF 432
  MIC: 0.03 µg/mL (≈ 0.0799 µM)
Escherichia coli 120
  MIC: 0.12 µg/mL (≈ 0.32 µM)
[5]
  MIC: 0.03 µg/mL (≈ 0.0799 µM)
[6]
  MIC: 0.25 µg/mL (≈ 0.666 µM)
[7]
  MIC: 2 µg/mL (≈ 5.33 µM)
Escherichia coli CNUR 1
  MIC: 0.25 µg/mL (≈ 0.666 µM)
[8]
  MIC: 8 µg/mL (≈ 21.3 µM)
Shighella enteritidis
  MIC: 0.25 µg/mL (≈ 0.666 µM)
[9]
  MIC: 64 µg/mL (≈ 170 µM)
[10]
  MIC: 2 µg/mL (≈ 5.33 µM)
Escherichia coli CNUR 8
  MIC: 0.12 µg/mL (≈ 0.32 µM)
[11]
  MIC: 0.12 µg/mL (≈ 0.32 µM)
[12]
  MIC: 4 µg/mL (≈ 10.7 µM)
[13]
  MIC: 2 µg/mL (≈ 5.33 µM)
Proteus vulgaris CNUR 6
  MIC: 64 µg/mL (≈ 170 µM)
[14]
  MIC: 4 µg/mL (≈ 10.7 µM)

## Cc1c(N2CCN(C)CC2)c(N)cc2c(=O)c(C(=O)O)cn(C3CC3)c12 [Compound 33]
Gram +; [15]
  MIC: 1.15 µg/mL
Gram +; read-out: Log (converted)
  MIC: 1.15 µg/mL (≈ 3.22 µM)
Gram -; [16]
  MIC: 0.338 µg/mL (≈ 0.948 µM)
Gram -; [17]
  MIC: 0.338 µg/mL (≈ 0.948 µM)
[1]
  MIC: 2 µg/mL (≈ 5.61 µM)
[2]
  MIC: 0.06 µg/mL (≈ 0.168 µM)
[3]
  MIC: 1 µg/mL (≈ 2.81 µM)
[4]
  MIC: 2 µg/mL (≈ 5.61 µM)
Escherichia coli ISF 432
  MIC: 0.03 µg/mL (≈ 0.0842 µM)
Escherichia coli 120
  MIC: 0.06 µg/mL (≈ 0.168 µM)
[5]
  MIC: 0.03 µg/mL (≈ 0.0842 µM)
[6]
  MIC: 0.25 µg/mL (≈ 0.701 µM)
[7]
  MIC: 0.5 µg/mL (≈ 1.4 µM)
Escherichia coli CNUR 1
  MIC: 0.06 µg/mL (≈ 0.168 µM)
[8]
  MIC: 8 µg/mL (≈ 22.4 µM)
Shighella enteritidis
  MIC: 0.06 µg/mL (≈ 0.168 µM)
[9]
  MIC: 16 µg/mL (≈ 44.9 µM)
[10]
  MIC: 2 µg/mL (≈ 5.61 µM)
Escherichia coli CNUR 8
  MIC: 0.06 µg/mL (≈ 0.168 µM)
[11]
  MIC: 0.06 µg/mL (≈ 0.168 µM)
[12]
  MIC: 8 µg/mL (≈ 22.4 µM)
[13]
  MIC: 1 µg/mL (≈ 2.81 µM)
Proteus vulgaris CNUR 6
  MIC: 8 µg/mL (≈ 22.4 µM)
[14]
  MIC: 0.5 µg/mL (≈ 1.4 µM)

## Cc1c(N2CCNCC2)c(N)cc2c(=O)c(C(=O)O)cn(C3CC3)c12 [Compound 34]
Gram +; [15]
  MIC: 2 µg/mL
Gram +; read-out: Log (converted)
  MIC: 2 µg/mL (≈ 5.84 µM)
Gram -; [16]
  MIC: 0.51 µg/mL (≈ 1.49 µM)
Gram -; [17]
  MIC: 0.513 µg/mL (≈ 1.5 µM)
[1]
  MIC: 4 µg/mL (≈ 11.7 µM)
[2]
  MIC: 0.12 µg/mL (≈ 0.35 µM)
[3]
  MIC: 1 µg/mL (≈ 2.92 µM)
[4]
  MIC: 4 µg/mL (≈ 11.7 µM)
Escherichia coli ISF 432
  MIC: 0.06 µg/mL (≈ 0.175 µM)
Escherichia coli 120
  MIC: 0.12 µg/mL (≈ 0.35 µM)
[5]
  MIC: 0.06 µg/mL (≈ 0.175 µM)
[6]
  MIC: 0.25 µg/mL (≈ 0.73 µM)
[7]
  MIC: 1 µg/mL (≈ 2.92 µM)
Escherichia coli CNUR 1
  MIC: 0.12 µg/mL (≈ 0.35 µM)
[8]
  MIC: 16 µg/mL (≈ 46.7 µM)
Shighella enteritidis
  MIC: 0.06 µg/mL (≈ 0.175 µM)
[9]
  MIC: 16 µg/mL (≈ 46.7 µM)
[10]
  MIC: 2 µg/mL (≈ 5.84 µM)
Escherichia coli CNUR 8
  MIC: 0.06 µg/mL (≈ 0.175 µM)
[11]
  MIC: 0.12 µg/mL (≈ 0.35 µM)
[12]
  MIC: 8 µg/mL (≈ 23.4 µM)
[13]
  MIC: 2 µg/mL (≈ 5.84 µM)
Proteus vulgaris CNUR 6
  MIC: 8 µg/mL (≈ 23.4 µM)
[14]
  MIC: 2 µg/mL (≈ 5.84 µM)
